In patent publication US12011433B2 (UNIVERSITÁ DEGLI STUDI DI BARI “ALDO MORO”, priority 2016, dated 2024):

Assays:
COX-2 [1] = target: COX-2 (Mus musculus (Mouse), UniProt Q05769); assay: COX-2 expression in LPS-treated BV2 microglial cells, western blotting; format: cell-based; conditions: LPS-stimulated BV2 cells
Experimental: (§1) Cells were then incubated for different times at 37° C. with LPS, as pro-inflammatory stimulus. Experiments included cells grown in medium alone (control).
(§2) The tissue and cell culture lysates were vortexed for 15-20 s and, then, centrifuged at 12,800×g for 20 min. The protein concentration in the supernatant was spectrophotometrically determined by Bradford's protein assay (Bradford, 1976). Protein samples were diluted with sample buffer (0.5 M Tris-HCl pH=6.8, 10% glycerol, 10% (w/v) SDS, 5% 2-mercaptoethanol, 0.05% (w/v) bromophenol blue) and then boiled for 3 min. Proteins (25 μg/lane) and prestained standards (BioRad Laboratories, Hercules, CA, USA) were loaded on 7% or 12% SDS precast polyacrylamide gels (BioRad Laboratories).
After electrophoresis, the resolved proteins were transferred from the gel to nitrocellulose membranes. A blotting buffer [20 mMTris/150 mM glycine, pH=8.0, 20% (v/v) methanol] was used for gel and membrane saturation and blotting. […]

GFAP = assay: astroglial activation in LPS-treated mice, GFAP immunoreactivity and immunoblotting; format: in vivo
Experimental: The protein concentration in the supernatant was spectrophotometrically determined by Bradford's protein assay (Bradford, 1976). […] Proteins (25 μg/lane) and prestained standards (BioRad Laboratories, Hercules, CA, USA) were loaded on 7% or 12% SDS precast polyacrylamide gels (BioRad Laboratories). After electrophoresis, the resolved proteins were transferred from the gel to nitrocellulose membranes. A blotting buffer [20 mMTris/150 mM glycine, pH=8.0, 20% (v/v) methanol] was used for gel and membrane saturation and blotting. […] Bands were visualized by chemiluminescence detection (Invitrogen, Milan, Italy). The β-actin level was used as a protein loading control. For tissue analysis, obtained bands were normalized to the level of β-actin performed for each cerebral area tested. For cell cultures the bands were normalized to the β-actin level in each experimental condition. […] VM in all the Figures) once a day for 10 days. […] On the seventh day, mice were anesthetized with tribromoethanol (250 mg/Kg, i.p.) and positioned in a stereotactic apparatus (Kopf Instruments, Tujunga, CA, USA). […] Immunohistochemistry was performed following a standard avidin-biotin complex procedure. […]

COX-1 = COX-1 (Mus musculus (Mouse), UniProt P22437); assay: COX-1 expression in LPS-treated BV2 microglial cells, western blotting; format: cell-based
Experimental: as §1, §2
After electrophoresis, the resolved proteins were transferred from the gel to nitrocellulose membranes. A blotting buffer [20 mMTris/150 mM glycine, pH=8.0, 20% (v/v) methanol] was used for gel and membrane saturation and blotting. Then, membranes were incubated in the dark with 1 μg/mL mouse monoclonal antibody (MoAb) anti-COX-1 and rabbit polyclonal Ab anti-COX-2 (1:1000) (both from AbCam, Cambridge, UK), rabbit polyclonal Ab anti p-IkB-α (1:200), mouse polyclonal Ab anti β-actin (1:500) (all from Santa Cruz Biotechnology), mouse MoAb anti-glial fibrillary acidic protein (GFAP) (1:200) and mouse mAb anti-ionized calcium-binding adapter molecule-1 (Iba-1) (1:200) (both from Merck Millipore) overnight at 4° C. The membranes were washed with 0.1% Tween 20-PBS (for 20 min, 3 times) and then incubated with the secondary antibody diluted 1:2000 for 60 min. Bands were visualized by chemiluminescence detection (Invitrogen, Milan, Italy). The β-actin level was used as a protein loading control. For tissue analysis, obtained bands were normalized to the level of β-actin performed for each cerebral area tested. For cell cultures the bands were normalized to the β-actin level in each experimental condition.

PGE2 = PGE2 release in LPS-stimulated BV2 microglial cells, competitive binding immunoassay; format: cell-based; conditions: for PGE2 release (ng/ml) at 48 h: LPS-stimulated BV2 cells; for PGE2 production reduction: LPS-treated BV2 cells
Experimental: Microglial cells were cultured in 6-well plates at a density of 3×10^6 cells/well. […] The cultures were maintained at 37° C. for 24 and 48 h in a humidified air containing a 5% CO2. PGE2 levels were determined in the supernatant using a competitive binding immunoassay (Cayman Chemical, Ann Arbor, MI, USA) following the manufacturer's instructions. Unstimulated cells were included as a control. PGE2 amount determination in the brain was performed in the tissue extracts, according to the manufacturer's instructions. The optical density was measured at λ=405-420 nm with precision microplate reader and the amount of PGE2 (ng/mL) was calculated using a PGE2 standard curve.

BV2 microglial cells = assay: BV2 microglial cell viability, MTT reduction assay; format: cell-based; conditions: 24 h, P6 0.5 and 1 μM, mofezolac 0.1 and 0.5 μM, alone or with LPS
Experimental: as §1
Cell viability of microglial cells was quantified using the MTT reduction assay. The cells (8×10^3/well) were grown in 96-well plates (Becton Dickinson Labware) in complete medium and treated with different concentration of COX inhibitors, in presence or absence of LPS. Untreated cells were used as a control. A PBS 1× solution of MTT (5 mg/mL) was prepared and added to the cell medium at a final concentration of 0.5 mg/mL. Cells were incubated for 4 h at 37° C. and 5% CO2 to allow the MTT metabolism. The formazan crystals formed (from MTT) into the cells were solubilized with DMSO (Sigma-Aldrich). The levels of MTT formazan were determined measuring the optical density at λ=560 nm and subtracting the background (λ=670 nm) with a Victor Multiplate Reader (Wallac). Optical density was directly correlated to cell quantity.

COX-2 [2] = target: COX-2 (Homo sapiens, UniProt P35354); assay: colorimetric COX Inhibitor screening Assay (peroxidase component, oxidized TMPD at 590 nm); format: biochemical; conditions: at 50 μM, the highest concentration tested
Experimental: Human cyclooxygenase inhibitory activity was determined by a colorimetric COX Inhibitor screening Assay which measures the peroxidase component of the cyclooxygenases, monitoring the appearance of oxidized N,N,N′,N′-tetramethyl-p-phenylenediamine (TMPD) at 590 nm.

Chain of COX-2 (Homo sapiens, UniProt P35354) (P35354 18-604 limits assumed): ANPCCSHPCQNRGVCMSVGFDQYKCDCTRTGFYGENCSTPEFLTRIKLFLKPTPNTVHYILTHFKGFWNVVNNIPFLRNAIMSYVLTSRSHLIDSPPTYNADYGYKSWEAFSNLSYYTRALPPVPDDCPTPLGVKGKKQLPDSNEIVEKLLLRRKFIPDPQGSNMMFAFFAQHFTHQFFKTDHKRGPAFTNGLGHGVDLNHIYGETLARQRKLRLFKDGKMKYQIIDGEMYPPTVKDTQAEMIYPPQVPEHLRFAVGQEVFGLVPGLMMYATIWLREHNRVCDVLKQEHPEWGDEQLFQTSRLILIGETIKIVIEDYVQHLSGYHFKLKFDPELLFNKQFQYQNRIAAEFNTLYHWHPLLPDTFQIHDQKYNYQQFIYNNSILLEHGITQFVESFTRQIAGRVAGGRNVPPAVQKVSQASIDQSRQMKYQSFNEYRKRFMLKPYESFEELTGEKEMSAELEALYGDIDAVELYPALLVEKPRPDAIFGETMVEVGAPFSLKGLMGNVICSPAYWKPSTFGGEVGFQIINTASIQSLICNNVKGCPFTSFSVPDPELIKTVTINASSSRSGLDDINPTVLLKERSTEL

- COX-2 protein levels (COX-2 [1]): unaffected
- COX-1 expression levels (COX-1; BV2 cells, 48 h of incubation with LPS, 1 h pre-treated): significantly reduced
- COX-1 expression reduction (COX-1; LPS-activated BV2 cells, independently from its concentration (0.1 and 0.5 μM)): 78%
- inhibition at 50 µM (COX-2 [2]): 38%
Structure (SMILES): COc1ccc(-c2noc(CC(=O)O)c2-c2ccc(OC)cc2)cc1 [mofezolac, 2-(3,4-bis(4-methoxyphenyl)isoxazol-5-yl)acetic acid]
- GFAP levels (GFAP; immunoblotting, mofezolac + LPS vs LPS alone): significantly reduced
- GFAP immunoreactive cells (GFAP; immunohistochemistry, LPS-treated mice, mofezolac 6 mg/kg i.p., all the tested brain areas): reduced the presence of GFAP immunoreactive cells
- PGE2 release (ng/ml) at 48 h (PGE2; 0.1 μM inhibitor + LPS): 0.06 ng/mL
- PGE2 release (ng/ml) at 48 h (PGE2; 0.5 μM inhibitor + LPS): 0.03 ng/mL
- PGE2 production reduction (PGE2; at 0.5 μM as printed in the text): 94%
- PGE2 production reduction (PGE2; at 1 μM as printed in the text): 97%
- cell toxicity (BV2 microglial cells): No cell toxicity
